Assay results from article PMC11768739 (Viruses, 2025).
Read-outs that look alike come from different tables or passages of the source.

Key:
EV68-3C protease [1] = target: T1, EV68-3C protease (enterovirus D68, UniProt A1E4A3); test: FRET peptide cleavage assay (DABCYL/EDANS 10-mer, 2C/3A site); format: biochemical
EV68-3C protease [2] = target: T1, EV68-3C protease; test: as above; format: biochemical; details: covalent (irreversible); 60 min preincubation; 25 nM enzyme; 10 μM substrate; 50 mM HEPES pH 7.5, 100 mM NaCl, 3% DMSO; unreliable is not stated

T1 sequence (A1E4A3 entry or part of it): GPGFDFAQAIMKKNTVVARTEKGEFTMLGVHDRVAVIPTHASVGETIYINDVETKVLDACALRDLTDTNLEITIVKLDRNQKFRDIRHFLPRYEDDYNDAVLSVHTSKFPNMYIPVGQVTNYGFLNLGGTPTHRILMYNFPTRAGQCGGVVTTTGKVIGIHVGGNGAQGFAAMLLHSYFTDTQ

Row | Structure (SMILES) | IC50 (EV68-3C protease [1]) | IC50 (EV68-3C protease [2])
1 | CC(C)(C)[C@H](NC(=O)C(F)(F)F)C(=O)N1C[C@H]2[C@@H]([C@H]1C(=O)N[C@H](C#N)C[C@@H]1CCNC1=O)C2(C)C [nirmatrelvir] | > 10000 nM | 
2 | COc1cccc2[nH]c(C(=O)N[C@@H](CC(C)C)C(=O)N[C@@H](C[C@@H]3CCNC3=O)C(=O)CO)cc12 [PF-00835231] | 1800 ± 200 nM | 
3 | Cn1cnc(Cn2c(=O)[nH]/c(=N\c3cc4cn(C)nc4cc3Cl)n(Cc3cc(F)c(F)cc3F)c2=O)n1 [ensitrelvir] | > 10000 nM | 
4 | CCOC(=O)/C=C/[C@H](C[C@@H]1CCNC1=O)NC(=O)[C@@H](CC(=O)[C@@H](NC(=O)c1cc(C)on1)C(C)C)Cc1ccc(F)cc1 [rupintrivir] |  | 7.8 ± 0.6 nM
